Assay results: article PMC4149780, “Structural basis for polyspecificity in the POT family of proton-coupled oligopeptide transporters” (EMBO Reports, 2014)

Columns and labels:
Type in all cases: biochemical, Streptococcus thermophilus
[1] = test system: PepTSt (WT); experiment: proton-driven [3H]-di-Ala uptake competition in reconstituted liposomes, WT transporter
Protocol: (§1) PepTSt was reconstituted into Escherichia coli total lipids with egg PC liposomes and assayed using a proton-driven system as previously described.
Figure S2. Substrate specificity profile for PepTSt.
‘% residual transport ’ refers to competition for 3H-Ala-Ala uptake in the presence of 10 mM of the cold peptides indicated on the X-axis as a percentage of ‘no competitor’ peptide in a reconstituted proton driven uptake assay.Error bars indicate the standard deviation from three independent

[2] = test system: PepTSt Tyr29Phe (Y29F); experiment: proton-driven [3H]-di-Ala uptake competition in reconstituted liposomes, Y29F variant
Text: as §1

[3] = test system: PepTSt Asn156Ala (N156A); experiment: proton-driven [3H]-di-Ala uptake competition in reconstituted liposomes, N156A variant
Text: as §1

[4] = test system: PepTSt Trp427Phe (W427F); experiment: proton-driven [3H]-di-Ala uptake competition in reconstituted liposomes, W427F variant
Text: as §1

Substance	IC50 ([1]; WT PepTSt in liposomes, proton-driven uptake) [µM]	IC50 [2] [µM]	IC50 [3] [µM]	IC50 [4] [µM]	% residual transport (competition for 3H-Ala-Ala uptake), result in words ([1]; 10 mM cold peptide, reconstituted proton driven uptake assay, WT PepTSt)
L-Ala-L-Ala [Ala-Ala]	37	40	86	35	
tri-glycine					not able to compete effectively
